Test results published in article PMC9482650, “Quantitative fragmentomics allow affinity mapping of interactomes” (Nature Communications, 2022).
Like-named read-outs stand apart in the source and are kept apart here. Ends that are not written are not given here.

Columns and labels:
SNTG2 PDZ [1] = target: T1, SNTG2 PDZ (Homo sapiens, UniProt Q9NY99); assay: Competitive fluorescence polarization (FP) assay; assay type: binding; settings: read-out: pKd FP (converted)
T1 sequence (Q9NY99 73-156 limits assumed): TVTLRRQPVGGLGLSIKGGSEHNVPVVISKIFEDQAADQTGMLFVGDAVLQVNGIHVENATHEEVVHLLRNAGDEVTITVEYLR

SNTG2 PDZ [2] = target: T1, SNTG2 PDZ; assay: Holdup assay; assay type: binding; settings: composite holdup affinity; 0.00=below quantification threshold; read-out: COMP pKd (converted)
DLG1_2 PDZ = DLG1_2 PDZ (Homo sapiens, UniProt Q12959); assay: Holdup assay; assay type: binding
DLG1_1 PDZ = DLG1_1 PDZ (Homo sapiens, UniProt Q12959); assay: Holdup assay; assay type: binding
TX1BP3 PDZ = target: T2, TX1BP3 PDZ (Homo sapiens, UniProt O14907); assay: Holdup assay; assay type: binding
T2 sequence (O14907 15-112 limits assumed): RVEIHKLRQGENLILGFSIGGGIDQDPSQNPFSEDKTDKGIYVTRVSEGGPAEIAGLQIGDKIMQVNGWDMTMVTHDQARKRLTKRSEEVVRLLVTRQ

SNX27 PDZ = SNX27 PDZ (Homo sapiens, UniProt Q96L92); assay: Holdup assay; assay type: binding
SCRIB_1 PDZ = SCRIB_1 PDZ (Homo sapiens, UniProt Q14160); assay: Holdup assay; assay type: binding
SCRIB2 PDZ = target: T3, SCRIB2 PDZ (Homo sapiens, UniProt Q14160); assay: Holdup assay; assay type: binding
T3 sequence (Q14160 862-950 limits assumed): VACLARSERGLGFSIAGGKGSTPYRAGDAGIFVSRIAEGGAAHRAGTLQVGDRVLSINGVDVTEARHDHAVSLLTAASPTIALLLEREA

HaCat cell extract preys = assay: PDZ-AP-MS, biotinylated MBP-PDZ baits; assay type: binding, human; settings: for Difference log2: enrichment of prey
Description: For PDZ-AP-MS experiments, PDZ domains were cloned as His6-AviTag-MBP-PDZ constructs. For co-expression with BirA, E. coli BL21(DE3) cells were co-transformed with His6-AviTag-MBP, or His6-AviTag-MBP-PDZ-coding and PET21a-BirA (Addgene #20857) plasmids. Simultaneously to IPTG induction, 50 µM biotin was added to the media. After cell harvesting, the lysis buffer was also supplemented with 50 µM biotin. Otherwise, expression and double affinity purification was identical as previously described in details.
For PBM-AP-MS experiments, 30 μl streptavidin resin was mixed with biotin or peptide at 50–60 μM concentration in 6–6.5 resin volume for 60 min to achieve resin saturation. For PDZ-AP-MS experiments, 30 μl streptavidin resin was mixed with biotinylated MBP or MBP-PDZ at 40-50 μM concentration in >1000× resin volume for 60 min to achieve resin saturation. After saturation, resins were washed a single time (ten resin volume, holdup buffer), and were depleted with biotin (1 mM biotin, 5–10 resin volume, 10 min). Finally, resins were washed two times. 0.5 ml 2 mg/ml cell lysate was added to the dry resin (1 mg total input) and were incubated at 4 °C for 2 h. Then, the beads were washed three times with 10 resin volume buffer containing: 50 mM TRIS pH 8.5, 150 mM NaCl, 1% TritonX-100, 10× complete EDTA-free protease inhibitor cocktail, 2 mM EDTA, 1 mM TCEP. Then, the beads were washed two times with ten resin volume buffer containing: 50 mM TRIS pH 8.5, 150 mM NaCl, 1 mM TCEP. Finally, captured protein was eluted from the resin in two steps and the eluted fractions were pooled. For each elution the beads were incubated for 30 min with three resin volume buffer containing: 20 mM TRIS pH8.5, 100 mM NaCl, 500 μM TCEP, 8 M Urea. Between each step, the beads were separated by mild centrifugation and the supernatant was removed by gentle pipetting.
The samples were precipitated with TCA 20% overnight at 4 °C and centrifuged at 14,000 rpm for 10 min at 4 °C. The protein pellets were washed twice with 1 mL cold acetone and air dried. The protein extracts were solubilized in urea 8 M, reduced with 5 mM TCEP for 30 min, and alkylated with 10 mM iodoacetamide for 30 min in the dark. Double digestion was performed at 37 °C with 500 ng endoproteinase Lys-C for 4 h, followed by fourfold dilution and an overnight digestion with 500 ng trypsin. Peptide mixtures were then desalted on C18 spin-column and dried on Speed-Vacuum.
Samples were analyzed using an Ultimate 3000 nano-RSLC (Thermo Scientific, San Jose California) coupled in line with a LTQ-Orbitrap ELITE mass spectrometer via a nano-electrospray ionization source (Thermo Scientific, San Jose California). Peptide mixtures were injected in 0.1% TFA on a C18 Acclaim PepMap100 trap-column (75 µm ID × 2 cm, 3 µm, 100 Å, Thermo Fisher Scientific) for 3 min at 5 µL/min with 2% ACN, 0.1% FA in H2O and then separated on a C18 Accucore nano-column (75 µm ID × 50 cm, 2.6 µm, 150 Å, Thermo Fisher Scientific) at 220 nl/min and 38 °C with a 90 min linear gradient from 5% to 30% buffer B (A: 0.1% FA in H2O/B: 99% ACN, 0.1% FA in H2O), regeneration at 5% B. The mass spectrometer was operated in positive ionization mode, in data-dependent mode with survey scans from m/z 350–1500 acquired in the Orbitrap at a resolution of 120,000 at m/z 400. The 20 most intense peaks from survey scans were selected for further fragmentation in the Linear Ion Trap with an isolation window of 2.0 Da and were fragmented by CID with normalized collision energy of 35%. (TOP20CID method) Unassigned and single charged states were excluded from fragmentation. The Ion Target Value for the survey scans (in the Orbitrap) and the MS2 mode (in the Linear Ion Trap) were set to 1E6 and 5E3 respectively and the maximum injection time was set to 100 ms for both scan modes. Dynamic exclusion was set to 20 s after one repeat count with mass width at ±10 ppm. […]

[3] = PBM motif of the named protein vs DLG1_2 PDZ, read-out: pKd values – domain-motif, DLG1_2 (converted)
[4] = PBM motif of the named protein vs DLG1_1 PDZ, read-out: pKd values – domain-motif, DLG1_1 (converted)
[5] = PBM motif of the named protein vs TX1BP3 PDZ, read-out: pKd values – domain-motif, TX1BP3 (converted)
[6] = PBM motif of the named protein vs SCRIB_1 PDZ, read-out: pKd values – domain-motif, SCRIB_1 (converted)
[7] = holdup affinity of the PBM peptide of the named protein, sheet PBMcomplexome, lower sub-table
[8] = holdup affinity of the PBM peptide of the named protein, sheet PBMcomplexome, lower sub-table, 3.5 appears to be the floor for no detectable binding, read-out: affinity of PBM to SCRIB_1 (pKd) (converted)
[9] = holdup affinity of the PBM peptide of the named protein, sheet PBMcomplexome, lower sub-table, 3.5 appears to be the floor for no detectable binding, read-out: affinity of PBM to TX1BP3 (pKd) (converted)

SCRIB_1 PDZ, sequence (Q14160 728-815 limits assumed): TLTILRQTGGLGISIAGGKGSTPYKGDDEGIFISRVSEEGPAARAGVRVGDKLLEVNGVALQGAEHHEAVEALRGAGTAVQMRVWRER

CC[C@H](C)[C@H](NC(=O)[C@H](CCC(N)=O)NC(=O)[C@@H](NC(=O)[C@H](Cc1c[nH]cn1)NC(=O)[C@H](CCC(N)=O)NC(=O)[C@H](CC(=O)O)NC(=O)[C@H](CCC(=O)O)NC(=O)[C@H](CC(=O)O)NC(=O)CCC(=O)NCCCOCCOCCOCCCNC(=O)CCCC[C@@H]1SC[C@@H]2NC(=O)N[C@@H]21)[C@@H](C)O)C(=O)N[C@H](C(=O)N[C@@H](CCCCNC(C)=O)C(=O)N[C@H](C(=O)O)C(C)C)[C@@H](C)O [PTEN_Ac]
Kd (SNTG2 PDZ [1]): 377 µM
Kd (SNTG2 PDZ [2]): 166 µM

DPRNTQTSQI [ABRAXAS2]
Kd (DLG1_2 PDZ; [3]): 145 µM
Kd (DLG1_1 PDZ; [4]): 324 µM
Kd (TX1BP3 PDZ; [5]): 195 µM
Kd (SNX27 PDZ): 91.2 µM
Kd (SCRIB_1 PDZ; [6]): 95.5 µM

EALLQMESVA [CAVIN3]
Kd (SNX27 PDZ; [7]): 74.1 µM
Kd (SCRIB_1 PDZ; [8]): 275 µM

CC(C)C[C@H](NC(=O)[C@@H]1CCCN1C(=O)[C@@H]1CCCN1C(=O)[C@H](CCCCN)NC(=O)[C@H](CO)NC(=O)[C@H](CC(=O)O)NC(=O)CCCCCNC(=O)CCCC[C@@H]1SC[C@@H]2NC(=O)N[C@@H]21)C(=O)N1CCC[C@H]1C(=O)N1CCC[C@H]1C(=O)N[C@@H](CC(=O)O)C(=O)N[C@@H](CCC(=O)O)C(=O)N[C@@H](Cc1c[nH]c2ccccc12)C(=O)N[C@H](C(=O)O)C(C)C [MERS E]
Kd (SNX27 PDZ): 27.5 µM

DLDEEEDTHL [PODXL]
Kd (DLG1_1 PDZ; [4]): 234 µM
Kd (SNX27 PDZ): 7.08 µM
Kd (SCRIB_1 PDZ; [6]): 8.32 µM

NLQEHSTTSV [RSBN1]
Kd (DLG1_2 PDZ; holdup affinity of the PBM peptide of the named protein, sheet PBMcomplexome, lower sub-table, 3.5 appears to be the floor for no detectable binding, read-out: affinity of PBM to DLG1_2 (pKd) (converted)): 102 µM
Kd (DLG1_1 PDZ; holdup affinity of the PBM peptide of the named protein, sheet PBMcomplexome, lower sub-table, 3.5 appears to be the floor for no detectable binding, read-out: affinity of PBM to DLG1_1 (pKd) (converted)): 316 µM
Kd (TX1BP3 PDZ; [9]): 107 µM
Kd (SNX27 PDZ; [7]): 3.31 µM
Kd (SCRIB_1 PDZ; [8]): 263 µM

YLEPVLSSEL [ATP2A2]
Kd (SCRIB2 PDZ; holdup affinity of the PBM peptide of the named protein, sheet PBMcomplexome, lower sub-table, 3.5 appears to be the floor for no detectable binding, read-out: affinity of PBM to SCRIB_2 (pKd) (converted)): 275 µM
Kd (TX1BP3 PDZ; [9]): 115 µM
Kd (SNX27 PDZ; [7]): 75.9 µM
Kd (SCRIB_1 PDZ; [8]): 41.7 µM

VLRLQSETSV [VANGL1]
Kd (DLG1_2 PDZ; [3]): 13.8 µM
Kd (SCRIB2 PDZ; PBM motif of the named protein vs SCRIB_2 PDZ, read-out: pKd values – domain-motif, SCRIB_2 (converted)): 19.1 µM
Kd (DLG1_1 PDZ; [4]): 35.5 µM
Kd (TX1BP3 PDZ; [5]): 61.7 µM
Kd (SNX27 PDZ): 2 µM
Kd (SCRIB_1 PDZ; [6]): 2.95 µM

TJP1
Difference log2 (HaCat cell extract preys; bait DLG1_1 PDZ vs MBP): 11.6713
Ratio DLG1_1/MBP (HaCat cell extract preys; bait DLG1_1 PDZ, fold change of prey): 3261.52
Difference log2 (HaCat cell extract preys; bait SCRIB_1 PDZ vs MBP): 5.351
Ratio SCRIB_1/MBP (HaCat cell extract preys; bait SCRIB_1 PDZ, fold change of prey): 40.8237
Difference log2 (HaCat cell extract preys; bait SNX27 PDZ vs MBP): 10.4278
Ratio SNX27/MBP (HaCat cell extract preys; bait SNX27 PDZ, fold change of prey): 1377.49
